In patent publication US10800789B2, “Antiviral compounds” (Gilead Pharmasset LLC, priority 2012, dated 2020):
Like-named read-outs stand apart in the source and are kept apart here.

Key:
[1] = test system: stable HCV 2a JFH-1 Rluc replicon cells (L31 present in NS5A); assay: Renilla luciferase HCV replicon reporter assay, genotype 2a JFH-1; format: cell-based
Procedure, shortened: (§1)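 72 h compound exposure (3-fold dilutions from 10 mM DMSO stocks) of replicon cells: stable dicistronic RLuc 1a H77, 1b Con1, 2a JFH-1 (NS5A L31); J6-NS5A chimera in JFH-1 (M31), transient in Huh-Lunet or stable. Renilla luciferase read-out, non-linear regression → EC50. DMSO negative control.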

[2] = test system: NS5A chimeric genotype 2a JFH-1 replicon with genotype 2b MD2b-1 strain NS5A gene (M31 present); assay: Replicon assay, genotype 2b NS5A chimera; format: cell-based, HCV
Procedure, shortened: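 EC50 was fitted by non-linear regression to Renilla luciferase signal after 72 h of exposure to 3-fold serially diluted compound (10 mM DMSO stocks). Controls were DMSO (none) and ITMN-191 above 100×EC50 (full). Chimeric 2a replicons were used either stable or transiently transfected into Huh-Lunet cells.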

[3] = IV and PO single dose pharmacokinetic studies in SD rats; format: in vivo, male Sprague-Dawley (SD) rats; details: male SD rats, PO 2 mg/kg vs IV infusion 1 mg/kg; for bioavailability: Sprague-Dawley, rat, plasma, read-out: Rat % F
Procedure, shortened: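 Fasted male Sprague-Dawley rats (250-300g, n=3/group) were given 1 mg/kg IV as a 30-min jugular infusion (5% ethanol/35% PEG 400/water pH 2.0) or 2 mg/kg by oral gavage (5% ethanol/55% PEG 400/citrate pH 2.2). Plasma was sampled to 24 h and analysed by LC/MS/MS. Non-compartmental parameters were derived, and %F was calculated from the oral/IV AUC ratio.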

[4] = test system: stable HCV 1b RLuc replicon cells (dicistronic genotype 1b Con1 replicon); assay: Renilla luciferase HCV replicon reporter assay, genotype 1b; format: cell-based; details: stable 1b Con1 RLuc replicon cells, 72 hours, read-out: 1b
Procedure, shortened: as §1

[5] = test system: NS5A chimeric genotype 1b Con1 replicon with genotype 3a S52 strain NS5A gene; assay: Replicon assay, genotype 3a NS5A chimera; format: cell-based, HCV
[6] = test system: stable HCV 1a RLuc replicon cells (dicistronic genotype 1a H77 replicon); assay: Renilla luciferase HCV replicon reporter assay, genotype 1a; format: cell-based; details: stable 1a H77 RLuc replicon cells
Procedure, shortened: as §1

[7] = test system: Q30R in genotype 1a NS5A (1a Pi-Rluc replicon, Huh-7-derived cured-51 cells); assay: Replicon assay against resistance mutant 1a Q30R; format: cell-based, HCV
Procedure, shortened: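 Q30R introduced by site-directed mutagenesis into the 1a Pi-RLuc replicon; replicon RNA transiently transfected into cured-51 cells. Cells treated with 3-fold serially diluted compound for 72 h, then lysed and Renilla luciferase measured; EC50 by non-linear regression.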

[8] = test system: NS5A chimeric genotype 1b Con1 replicon with genotype 4a ED43 strain NS5A gene; assay: Replicon assay, genotype 4a NS5A chimera; format: cell-based, HCV
[9] = test system: NS5A chimeric genotype 2a JFH-1 replicon with genotype 2a J6 strain NS5A gene (M31 present); assay: Replicon assay, genotype 2a J6 NS5A chimera; format: cell-based, HCV
Procedure, shortened: as §1

[10] = Hepatitis C virus, read-out: 2a JFH (nM), genotype 2a JFH-1 replicon (L31 in NS5A), stable cells
[11] = Hepatitis C virus, read-out: 2a JFH, stable 2a JFH-1 Rluc replicon cells, L31 in NS5A, activity range
[12] = Hepatitis C virus, 2BS, read-out: 2b (s), stably replicating replicon cells (s), activity range
[13] = Hepatitis C virus, read-out: 2b (s) (nM), genotype 2b MD2b-1 NS5A chimeric replicon (M31), stably replicating replicon cells (s)
[14] = Hepatitis C virus, read-out: 2b (t) (nM), genotype 2b MD2b-1 NS5A chimeric replicon (M31), transiently transfected (t)
[15] = Hepatitis C virus, read-out: 2b (t), transiently transfected (t) into Huh-Lunet cells, activity range
[16] = Hepatitis C virus, read-out: 3a (s) (nM), genotype 3a NS5A chimeric replicon, stable replicon cells (s)
[17] = Hepatitis C virus, read-out: 3a (s), (s), activity range
[18] = Hepatitis C virus, 72 h, activity range
[19] = Hepatitis C virus, read-out: 1a Q30R
[20] = Hepatitis C virus, read-out: 1a Q30R (nM)
[21] = Hepatitis C virus, read-out: 4a (s) (nM), genotype 4a NS5A chimeric replicon, stable replicon cells (s)
[22] = Hepatitis C virus, read-out: 4a (s), (s), activity range
[23] = Hepatitis C virus, read-out: 2a J6 (t) (nM), genotype 2a J6 NS5A chimeric replicon (M31), transiently transfected (t) into Huh-Lunet cells
[24] = Hepatitis C virus, read-out: 2a J6 (t), transiently transfected (t) into Huh-Lunet cells, activity range

Structure (SMILES)	EC50 [1, 10] [nM]	EC50 [1, 11] [nM]	EC50 [2, 12] [nM]	EC50 [2, 13] [nM]	EC50 [2, 14] [nM]	EC50 [2, 15] [nM]	bioavailability [3] [%]	EC50 ([4]; Hepatitis C virus, 72 h) [nM]	EC50 [5, 16] [nM]	EC50 [5, 17] [nM]	EC50 ([6]; Hepatitis C virus, 72 h) [nM]	EC50 [6, 18] [nM]	EC50 [7, 19] [nM]	EC50 [7, 20] [nM]	EC50 [8, 21] [nM]	EC50 [8, 22] [nM]	EC50 [9, 23] [nM]	EC50 [9, 24] [nM]	further results
COC(=O)N[C@H](C(=O)N1[C@@H](C)CC[C@H]1c1ncc(-c2ccc3c(c2)COc2cc4c(ccc5nc([C@@H]6CC[C@H](C)N6C(=O)[C@@H](NC(=O)OC)[C@@H](C)OC)[nH]c54)cc2-3)[nH]1)C(C)C [DX, Methyl {(2S)-1-[(2S,4S)-2-(5-{2-[(2S,5S)-1-{(2S,3R)-3-methoxy-2-[(methoxycarbonyl)amino]butanoyl}-5-methylpyrrolidin-2-yl]-1,11-dihydroisochromeno[4′,3′:6,7]naphtho[1,2-d]imidazol-9-yl}-1H-imidazol-2-yl)-5-methylpyrrolidin-1-yl]-3-methyl-1-oxobutan-2-yl}carbamate]	–	–	–	–	–	–	–	–	–	–	–	–	–	–	–	–	–	–	EC50 ([1]; genotype 2a JFH-1 replicon (L31 in NS5A), stable cells, read-out: 2a JFH): 0.019 nM; EC50 ([1]; stable 2a JFH-1 Rluc replicon cells, L31 in NS5A, activity range, read-out: 2a JFH): < 0.1 nM; EC50 ([2]; genotype 2b MD2b-1 NS5A chimeric replicon (M31), stably replicating replicon cells (s), read-out: 2b (s)): 0.201 nM; EC50 ([2]; genotype 2b MD2b-1 NS5A chimeric replicon (M31), transiently transfected (t), read-out: 2b (t)): 0.06 nM; EC50 ([2]; stably replicating replicon cells (s), activity range, read-out: 2b (s)): 0.1 to 0.999 nM; EC50 ([2]; transiently transfected (t) into Huh-Lunet cells, activity range, read-out: 2b (t)): < 0.1 nM; Rat % F ([3]; oral bioavailability): 21.3%; EC50 [4]: 0.031 nM; EC50 ([5]; (s), activity range, read-out: 3a (s)): < 0.1 nM; EC50 ([5]; genotype 3a NS5A chimeric replicon, stable replicon cells (s), read-out: 3a (s)): 0.048 nM; EC50 ([6]; 72 hours): 0.021 nM; EC50 ([6]; 72 hours, activity range): < 0.1 nM; EC50 ([7]; Q30R mutant replicon transiently transfected into Huh-7-derived cured-51 cells, activity range, read-out: 1a Q30R): 0.1 to 0.999 nM; EC50 ([7]; Q30R mutant replicon transiently transfected into Huh-7-derived cured-51 cells, read-out: 1a Q30R): 0.138 nM; EC50 ([8]; (s), activity range, read-out: 4a (s)): < 0.1 nM; EC50 ([8]; genotype 4a NS5A chimeric replicon, stable replicon cells (s), read-out: 4a (s)): 0.018 nM; EC50 ([9]; genotype 2a J6 NS5A chimeric replicon (M31), transiently transfected (t) into Huh-Lunet cells, read-out: 2a J6 (t)): 0.109 nM; EC50 ([9]; transiently transfected (t) into Huh-Lunet cells, activity range, read-out: 2a J6 (t)): 0.1 to 0.999 nM
COC(=O)N[C@H](C(=O)N1[C@@H](C)CC[C@H]1c1ncc(-c2ccc3c(c2)COc2cc4c(ccc5nc([C@@H]6C[C@@H]7CCC[C@@H]7N6C(=O)[C@@H](NC(=O)OC)C6CCOCC6)[nH]c54)cc2-3)[nH]1)C(C)C [IA]	0.021	< 0.1	< 0.1	0.062	0.033	< 0.1	21.8	0.024	0.052	< 0.1	0.015	< 0.1	< 0.1	0.024	0.019	< 0.1	0.024	< 0.1	EC50 ([5]; Hepatitis C virus, read-out: 3a (t) (nM), genotype 3a NS5A chimeric replicon, transiently transfected (t)): 0.055 nM; EC50 ([5]; Hepatitis C virus, read-out: 3a (t), transiently transfected (t) into Huh-Lunet cells, activity range): < 0.1 nM
COC(=O)NC(C(=O)N1[C@@H](C)CC[C@H]1c1nc2ccc3cc4c(cc3c2[nH]1)OCc1cc(-c2cnc([C@@H]3CC[C@H](C)N3C(=O)[C@@H](NC(=O)OC)C3CCOCC3)[nH]2)ccc1-4)C1CCOCC1 (stereo partly drawn) [EB, Methyl [(1 S)-2-[(2S,5S)-2-(5-{2-[(2S,5S)-1-{[(methoxycarbonyl)amino](tetrahydro-2H-pyran-4-yl)acetyl}-5-methylpyrrolidin-2-yl]-1,11-dihydroisochromeno[4′,3′:6,7]naphtho[1,2-d]imidazol-9-yl}-1H-imidazol-2-yl)-5-methylpyrrolidin-1-yl]-2-oxo-1-(tetrahydro-2H-pyran-4-yl)ethyl]carbamate]	0.012	< 0.1	< 0.1	0.038	0.092	< 0.1	4.2	0.051	0.075	< 0.1	0.024	< 0.1	< 0.1	0.042	0.014	< 0.1	0.012	< 0.1	–
